Source: patent publication EP4617282A1, “MEMBRANE FUSION INHIBITOR FOR […] VIRUS AND DRUG-RESISTANT STRAIN THEREOF, AND PHARMACEUTICAL USE THEREOF” (Institute Of Pathogen Biology, Chinese Academy Of Medical …, priority 2022, dated 2024)
Residues, ends and D or L forms follow the SMILES beside them. *: point of attachment. Succinyl(4-O-cholesteryl) = CC(C)CCC[C@@H](C)[C@H]1CC[C@H]2[C@@H]3CC=C4C[C@@H](OC(=O)CCC(=O)*)CC[C@]4(C)[C@H]3CC[C@]12C

Legend:
[1] = system: HIV-1NL4-3 pseudovirus; type: cell-based; details: TZM-b1 cells, 100 TCID50, 48 hours
From the text: (§1) HIV-1JRFL Env expression vectors and backbone plasmas (pSG3 ΔEnv) and TZM-bl cells were described in the following literature: Xue, J., Chong, H., Zhu, Y, Zhang, J., Tong, L., Lu, J., Chen, T., Cong, Z., Wei, Q., He, Y., 2022. Efficient treatment and pre-exposure prophylaxis in rhesus macaques by an HIV fusion-inhibitory lipopeptide. Cell 185, 131-144 e118. The HIV-1JRFL Env expression vector and the backbone plasmas (pSG3 ΔEnv) were co-transfected into HEK293T cells, and the transfected cells were cultured in a cell culture incubator at 37 °C and 5% CO2 for 48 hours, and then the supernatant was collected and filtered to collect the filtrate. The resulting filtrate was a virus solution containing HIV-1JRFL pseudovirus particles (called as HIV-1JRFL virus solution), which was preserved at -80 °C for later use.
The preparation method of the HIV-1NL4-3 virus solution (i.e., the virus solution containing HIV-1NL4-3 pseudovirus particle) was basically the same as that of the HIV-1JRFL virus liquid, except that the HIV-1JRFL Env expression vector was replaced with HIV-1NL4-3 Env expression vector. […]
Test virus solution: HIV-1NL4-3 virus solution or HIV-1JRFL virus solution. • 1. […] Relative luminescence units (RLU) were measured by a microplate luminometer, an inhibition rate curve was made, and the half-maximal inhibition concentration (IC50) of the drug was calculated. […]

[2] = system: HIV-1JRFL pseudovirus; type: cell-based; details: TZM-b1 cells, 100 TCID50, 48 hours
From the text: as §1
Test virus solution: HIV-1NL4-3 virus solution or HIV-1JRFL virus solution. • 1. A test lipopeptide was dissolved in deionized water and then diluted with DMEM medium (using 3-fold dilution) to obtain a lipopeptide diluent. 9 dilutions were set for each test lipopeptide. • 2. In a 96-well plate, the lipopeptide diluent (50 µL/well) was added to drug wells and the DMEM medium (50 µL/well) was added to control wells. Each well was set with three duplicate wells. • 3. After step 2 was finished, a test virus solution (50 µL/well, a virus content of 100 TCID50) was added to the 96-well plate and incubated at room temperature for 30 minutes. • 4. After step 3 was finished, a TZM-b1 cell suspension (100 µL/well) was added to the 96-well plate and cultured for 48 hours in a cell culture incubator at 37 °C and 5% CO2. Preparation method of the TZM-b1 cell suspension: TZM-b1 cells were re-suspended in a DMEM medium and DEAE-dextran was added thereto such that the cell concentration was 10×10^4 cells/mL and the DEAE-dextran concentration was 15 µg/mL. • 5. […] Relative luminescence units (RLU) were measured by a microplate luminometer, an inhibition rate curve was made, and the half-maximal inhibition concentration (IC50) of the drug was calculated. […]

Structure (SMILES) | IC50 [1] | IC50 [2]
CC[C@H](C)[C@H](NC(=O)[C@H](CCCCN)NC(=O)[C@H](CCC(N)=O)NC(=O)[C@H](CCC(=O)O)NC(=O)[C@H](Cc1ccc(O)cc1)NC(C)=O)C(=O)N[C@@H](CCC(=O)O)C(=O)N[C@@H](CCC(=O)O)C(=O)N[C@@H](CC(C)C)C(=O)N[C@@H](CC(C)C)C(=O)N[C@@H](CCCCN)C(=O)N[C@@H](CCCCN)C(=O)N[C@@H](C)C(=O)N[C@@H](CCC(=O)O)C(=O)N[C@@H](CCC(=O)O)C(=O)N[C@@H](CCC(N)=O)C(=O)N[C@@H](CCC(N)=O)C(=O)N[C@@H](CCCCN)C(=O)N[C@@H](CCCCN)C(=O)N[C@@H](CC(N)=O)C(=O)N[C@@H](CCC(=O)O)C(=O)N[C@@H](CCC(=O)O)C(=O)N[C@@H](CCC(=O)O)C(=O)N[C@@H](CC(C)C)C(=O)N[C@@H](CCCCN)C(=O)N[C@@H](CCCCN)C(=O)N[C@@H](CC(C)C)C(=O)N[C@@H](CCC(=O)O)C(=O)N[C@@H](CCCCNC(=O)CCC(=O)O[C@H]1CC[C@@]2(C)C(=CC[C@H]3[C@@H]4CC[C@H]([C@H](C)CCCC(C)C)[C@@]4(C)CC[C@@H]32)C1)C(N)=O [LP-98, reference compound] (Ac-YEQKIEELLKKAEEQQKKNEEELKKLEK(Succinyl(4-O-cholesteryl))-NH2) | 1.07 pM | 2.58 pM
CC[C@H](C)[C@H](NC(=O)[C@H](CCC(=O)O)NC(C)=O)C(=O)N[C@@H](CCC(=O)O)C(=O)N[C@@H](CCC(=O)O)C(=O)N[C@@H](CC(C)C)C(=O)N[C@@H](CCC(=O)O)C(=O)N[C@@H](CCCCN)C(=O)N[C@@H](CCCCN)C(=O)N[C@H](C(=O)N[C@@H](CCC(=O)O)C(=O)N[C@@H](CCC(=O)O)C(=O)N[C@@H](CC(C)C)C(=O)N[C@@H](CC(C)C)C(=O)N[C@@H](CCCCN)C(=O)N[C@@H](CCCCN)C(=O)N[C@@H](C)C(=O)N[C@@H](CCC(=O)O)C(=O)N[C@@H](CCC(=O)O)C(=O)N[C@@H](CCC(N)=O)C(=O)N[C@@H](CCC(N)=O)C(=O)N[C@@H](CCCCN)C(=O)N[C@@H](CCCCN)C(=O)N[C@@H](CC(N)=O)C(=O)N[C@@H](CCC(=O)O)C(=O)N[C@@H](CCC(=O)O)C(=O)N[C@@H](CCC(=O)O)C(=O)N[C@@H](CC(C)C)C(=O)N[C@@H](CCCCN)C(=O)N[C@@H](CCCCN)C(=O)N[C@@H](CC(C)C)C(=O)N[C@@H](CCC(=O)O)C(=O)N[C@@H](CCCCNC(=O)CCC(=O)O[C@H]1CC[C@@]2(C)C(=CC[C@H]3[C@@H]4CC[C@H]([C@H](C)CCCC(C)C)[C@@]4(C)CC[C@@H]32)C1)C(N)=O)[C@@H](C)CC [LP-101] (Ac-EIEELEKKIEELLKKAEEQQKKNEEELKKLEK(Succinyl(4-O-cholesteryl))-NH2) | – | 2.26 pM
CC[C@H](C)[C@H](NC(=O)[C@H](CCCCN)NC(=O)[C@H](CCCCN)NC(=O)[C@H](CCC(=O)O)NC(=O)[C@H](Cc1c[nH]c2ccccc12)NC(=O)[C@H](CCC(=O)O)NC(=O)[C@H](CCC(=O)O)NC(=O)[C@H](Cc1c[nH]c2ccccc12)NC(C)=O)C(=O)N[C@@H](CCC(=O)O)C(=O)N[C@@H](CCC(=O)O)C(=O)N[C@@H](CC(C)C)C(=O)N[C@@H](CCC(=O)O)C(=O)N[C@@H](CCCCN)C(=O)N[C@@H](CCCCN)C(=O)N[C@H](C(=O)N[C@@H](CCC(=O)O)C(=O)N[C@@H](CCC(=O)O)C(=O)N[C@@H](CC(C)C)C(=O)N[C@@H](CC(C)C)C(=O)N[C@@H](CCCCN)C(=O)N[C@@H](CCCCN)C(=O)N[C@@H](C)C(=O)N[C@@H](CCC(=O)O)C(=O)N[C@@H](CCC(=O)O)C(=O)N[C@@H](CCC(N)=O)C(=O)N[C@@H](CCC(N)=O)C(=O)N[C@@H](CCCCN)C(=O)N[C@@H](CCCCN)C(=O)N[C@@H](CC(N)=O)C(=O)N[C@@H](CCC(=O)O)C(=O)N[C@@H](CCC(=O)O)C(=O)N[C@@H](CCC(=O)O)C(=O)N[C@@H](CC(C)C)C(=O)N[C@@H](CCCCN)C(=O)N[C@@H](CCCCN)C(=O)N[C@@H](CC(C)C)C(=O)N[C@@H](CCC(=O)O)C(=O)N[C@@H](CCCCNC(=O)CCC(=O)O[C@H]1CC[C@@]2(C)C(=CC[C@H]3[C@@H]4CC[C@H]([C@H](C)CCCC(C)C)[C@@]4(C)CC[C@@H]32)C1)C(N)=O)[C@@H](C)CC [LP-104] (Ac-WEEWEKKIEELEKKIEELLKKAEEQQKKNEEELKKLEK(Succinyl(4-O-cholesteryl))-NH2) | 14.5 pM | 60.2 pM
